We go through 18 molecules from PubChem BioAssay (NCI).

Test systems include OVCAR-3 ovarian; MDA-N; ACHN renal; SN12C renal; SNB-19 CNS; SK-MEL-2 melanoma; HT29 colon.
What all share (assay): growth of human tumour cells (NCI), 48 h

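Following 48 hours of exposure in 96-well plates, responses at five concentrations were used to interpolate endpoints linearly. TGI: total growth inhibition.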 Where a SMILES comes first, the peptide text is derived from it. [ ]: non-standard residue; d: D form. The star is where a group is joined. ξ: configuration not given here. ξW = NC(Cc1c[nH]c2ccccc12)C(=O)O; X30 = O=C(O)[C@H]1CCC[C@H]1N*; ξF = NC(Cc1ccccc1)C(=O)O; Boc = CC(C)(C)OC(=O)*; ξK = NCCCCC(N)C(=O)O; ξT = CC(O)C(N)C(=O)O; tBu = CC(C)(C)*

As for `O=C(O)c1nc2cc(C(F)(F)F)ccc2[nH]c1=O`, the TGI with OVCAR-3 ovarian, in the assay with MDA-N, in the assay on ACHN renal, in the assay with SN12C renal, in the assay with SNB-19 CNS and in the assay on SK-MEL-2 melanoma was more than 100 µM in each case. In addition, the TGI in the assay on HT29 colon was more than 100 µM.

As for `NN/C(=N\S(=O)(=O)c1cccc2nsnc12)Nc1ccc(Cl)cc1`, the TGI in the assay with OVCAR-3 ovarian, in the assay with MDA-N, in the assay on ACHN renal, in the assay on SN12C renal, in the assay on SNB-19 CNS and in the assay with SK-MEL-2 melanoma was more than 100 µM in each case. The molecule also came in with a TGI in the assay on HT29 colon of more than 100 µM.

As for `CN(C)c1ccc(/C=C2\N=C(c3ccccc3)N(/N=C3\C(=O)Nc4ccccc43)C2=O)cc1`, the TGI in the assay with OVCAR-3 ovarian was 65.5 µM; in the assay on MDA-N, more than 100 µM; in the assay on ACHN renal it was more than 100 µM; with SN12C renal, more than 100 µM; with SNB-19 CNS, more than 100 µM; with SK-MEL-2 melanoma, more than 100 µM. The TGI in the assay with HT29 colon is more than 100 µM.

With `Nc1ccc(-c2nc3ccccc3s2)cc1F`, the TGI is 77.6 µM in the assay with OVCAR-3 ovarian; more than 100 µM in the assay with MDA-N; 74.4 µM with ACHN renal; more than 100 µM in the assay with SN12C renal; 87.9 µM in the assay on SNB-19 CNS; 43.4 µM in the assay with SK-MEL-2 melanoma. The same molecule yielded a TGI in the assay with HT29 colon of more than 100 µM.

Take `COC(=O)C(CCSc1ccccc1)C(=O)OC`: the TGI in the assay on OVCAR-3 ovarian, in the assay with MDA-N, in the assay on ACHN renal, with SN12C renal, with SK-MEL-2 melanoma and in the assay on HT29 colon was more than 100 µM throughout.

Consider `Nc1ccc(-c2nc3ccc(Cc4ccc5nc(-c6ccc(N)cc6)oc5c4)cc3o2)cc1`, for which the TGI in the assay with MDA-N, in the assay on ACHN renal, in the assay with SN12C renal, in the assay on SNB-19 CNS, with SK-MEL-2 melanoma and in the assay on HT29 colon was more than 100 µM each time.

Regarding `Cc1ccc(N=Nc2c(C)nn(C(=O)CC(=O)Nc3ccc(Cl)cc3)c2C)cc1C`, the TGI in the assay on OVCAR-3 ovarian, in the assay with MDA-N, with ACHN renal, in the assay on SN12C renal, in the assay with SNB-19 CNS and in the assay on SK-MEL-2 melanoma was more than 100 µM throughout. The molecule also came in with a TGI with HT29 colon of more than 100 µM.

Take `O=C(/C=C/c1ccc(O)cc1)c1cc(O)cc(O)c1`: the TGI was 29.4 µM in the assay on OVCAR-3 ovarian; 26.7 µM with MDA-N; 20.2 µM with ACHN renal; 28.4 µM with SN12C renal; 30.3 µM with SNB-19 CNS; 34.9 µM in the assay on SK-MEL-2 melanoma. The TGI in the assay with HT29 colon was 35 µM.

In the case of `CC(C)N(C(=O)c1ccc(NCc2cc(O)ccc2O)cc1)C(C)C`, the TGI in the assay with OVCAR-3 ovarian is 25.1 µM; in the assay with MDA-N, 42 µM; in the assay with ACHN renal it was 26.7 µM; in the assay on SN12C renal it was 49 µM; in the assay on SNB-19 CNS, 58.6 µM; in the assay on SK-MEL-2 melanoma it was 57.9 µM. In addition, the TGI in the assay with HT29 colon came to 35 µM.

Regarding `CC(OC(C)(C)C)C(NC(=O)C(CCCCNC(=O)OC(C)(C)C)NC(=O)C(Cc1c[nH]c2ccccc12)NC(=O)C(N)Cc1ccccc1)C(=O)NC(Cc1ccccc1)C(=O)N[C@@H]1CCC[C@@H]1C(=O)O` (stereo partly specified) (H-[ξF][ξW][ξK](Boc)[ξT](tBu)[ξF]-X30), the TGI with OVCAR-3 ovarian is more than 100 µM; in the assay with MDA-N it was more than 100 µM; in the assay with ACHN renal, more than 100 µM; in the assay on SN12C renal, 67.2 µM; in the assay on SNB-19 CNS it was 51.2 µM; in the assay with SK-MEL-2 melanoma, 41.5 µM. In addition, the TGI in the assay on HT29 colon came out at 80.3 µM.

Take `CCN(CC)C(=O)N[C@@H](Cc1ccccc1)C(=O)NC`: the TGI in the assay with OVCAR-3 ovarian, in the assay with MDA-N, in the assay with ACHN renal, in the assay with SN12C renal, with SNB-19 CNS and with SK-MEL-2 melanoma was more than 100 µM throughout. In the assay with HT29 colon, this molecule had a TGI of more than 100 µM.

On to `N#Cc1nc(C2SCCCS2)oc1N`, for which the TGI in the assay with MDA-N, with ACHN renal, in the assay with SN12C renal, in the assay with SNB-19 CNS, in the assay with SK-MEL-2 melanoma and with HT29 colon was more than 100 µM throughout.

In the case of `CSc1n[nH]c2n[nH]c(C)c12`, the TGI with OVCAR-3 ovarian, in the assay on MDA-N, in the assay on ACHN renal, with SN12C renal, in the assay on SNB-19 CNS and with SK-MEL-2 melanoma was more than 100 µM each time. The molecule further had a TGI in the assay on HT29 colon of more than 100 µM.

On to `CCOC(=O)NC(C(C(=O)OCC)C(=O)OCC)(C(F)(F)F)C(F)(F)F`, for which the TGI in the assay with OVCAR-3 ovarian, with MDA-N, in the assay on ACHN renal, with SN12C renal, with SNB-19 CNS and in the assay on SK-MEL-2 melanoma was more than 100 µM throughout. The TGI with HT29 colon is more than 100 µM.

In the case of `COc1cc(/C=C2/C(=O)N=C(NC(C)=O)N2C)ccc1OC(C)=O`, the TGI in the assay with OVCAR-3 ovarian, in the assay with MDA-N, in the assay with ACHN renal, in the assay with SN12C renal, in the assay with SNB-19 CNS and with SK-MEL-2 melanoma was more than 100 µM throughout. The TGI with HT29 colon was more than 100 µM.

As to `C=CCOCn1ccc(NC(=O)c2ccccc2)nc1=O`, the TGI with MDA-N, with ACHN renal, in the assay on SN12C renal, in the assay on SNB-19 CNS and with HT29 colon was more than 100 µM in each case.

Regarding `C=CCN1C[C@@H](C)N([C@@H](c2ccccc2)c2ccc(C(=O)N(CC)CC)cc2)C[C@@H]1C`, the TGI with OVCAR-3 ovarian, in the assay with MDA-N, with ACHN renal, with SN12C renal, with SNB-19 CNS and in the assay with SK-MEL-2 melanoma was more than 100 µM each time. Moreover, the TGI in the assay with HT29 colon was more than 100 µM.

On to `O=C(Nc1ccc(N2C(=O)CSC2c2cccs2)cc1)c1ccc(N2C(=O)CSC2c2cccs2)cc1` (stereo unspecified), for which the TGI in the assay with OVCAR-3 ovarian, with MDA-N, with ACHN renal, with SN12C renal, in the assay on SNB-19 CNS and in the assay with SK-MEL-2 melanoma was more than 100 µM throughout. In addition, the TGI with HT29 colon is more than 100 µM.
